ChEMBL document CHEMBL1156406, “New Xenia diterpenoids from the Indonesian soft coral Xenia sp” (J Nat Prod, 2002)

Columns and labels:
Format in all cases: functional, cell-based
A549 = test: Cytotoxicity against human A549 cells
P388 = test: Cytotoxicity against mouse P388 cells
HT-29 = test: Cytotoxicity against human HT-29 cells
SK-MEL-28 = test: Cytotoxicity against human SK-MEL-28 cells

Measured: IC50

C=C1CC[C@@H]2/C(=C/C=C/C(C)(C)O)C(=O)OC[C@H]2C(=C)CC[C@@H]1O
> 1 µg/mL: all assays above

C=C1CC[C@@H]2/C(=C/C=C/C(C)(C)O)C(=O)OC[C@H]2C(=C)C[C@@H](O)[C@@H]1O
> 1 µg/mL: all assays above

C=C1C[C@@H](O)C2OC2(C)CC[C@@H]2/C(=C/C=C/C(C)(C)O)C(=O)OC[C@@H]12 (stereo partly specified)
> 1 µg/mL: all assays above

C=C1C[C@@H](O)/C=C(\C)CC[C@@H]2/C(=C/C=C/C(C)(C)O)C(=O)OC[C@@H]12 [ISOXENIOLIDE A]
> 1 µg/mL: all assays above
